Reference: US9047904B2, “Magnetic recording medium” (priority 2009, dated 2015)

Settings: 50 mg in 20 mL water + 30 mL tetrahydrofuran; titrated with 0.1N NaOH; pH at half of the neutralization titration quantity
Method: In the present invention, the term “acid strength” refers to a value that is measured by the following method.
A 50 mg sample of organic acid A or B is dissolved in a mixed solution of 20 mL of water and 30 mL of tetrahydrofuran. Titration to neutral is conducted using a model GT-100 Win automatic titrator made by Mitsubishi Chemical Analytech with 0.1N NaOH (Wako Pure Chemical Industries). The pH corresponding to half of the titration quantity that is added dropwise to attain the neutralization point is read, and that pH is adopted as the acid strength.
<Acid Strength of Organic Acids A and B>
A 50 mg sample of organic acid A or B was dissolved in a mixed solution of 20 mL of water and 30 mL of tetrahydrofuran. Titration to neutral was conducted with 0.1N NaOH (Wako Pure Chemical Industries) using a model GT-100 Win automatic titrator made by Mitsubishi Chemical Analytech. The pH corresponding to half of the titration quantity that was added dropwise to attain the neutralization point was read, and that pH was adopted as the acid strength.

Compound	pKa(B) (acid strength of organic acid B)	pKa(A) (acid strength of organic acid A)
O=C(O)CC(O)(CC(=O)O)C(=O)O [Citric acid, citric acid]	5.84	–
Phenyl phosphate	–	4.01
